Where two headings read alike, the source gives them in different places.
Key:
tyrosine hydroxylase [1] = conditions: cited from earlier work
[2] = delivered orally, cited from earlier work
[3] = system: dopaminergic iPS cells originating from DJ-1 homozygous Parkinson's patients; assay: Chronic inhibition of dopamine synthesis in dopaminergic iPS cells from DJ-1 homozygous Parkinson's patients; format: cell-based, human; conditions: chronic AMPT treatment, FIG. 5
tyrosine hydroxylase [4] = molecular target: T1, tyrosine hydroxylase (Bos taurus, UniProt P17289); conditions: cited from earlier work
T1 construct: in bovine adrenal gland preparations; from tissue; host or cells: bovine (beef) adrenal gland
T1 sequence (P17289 1-491): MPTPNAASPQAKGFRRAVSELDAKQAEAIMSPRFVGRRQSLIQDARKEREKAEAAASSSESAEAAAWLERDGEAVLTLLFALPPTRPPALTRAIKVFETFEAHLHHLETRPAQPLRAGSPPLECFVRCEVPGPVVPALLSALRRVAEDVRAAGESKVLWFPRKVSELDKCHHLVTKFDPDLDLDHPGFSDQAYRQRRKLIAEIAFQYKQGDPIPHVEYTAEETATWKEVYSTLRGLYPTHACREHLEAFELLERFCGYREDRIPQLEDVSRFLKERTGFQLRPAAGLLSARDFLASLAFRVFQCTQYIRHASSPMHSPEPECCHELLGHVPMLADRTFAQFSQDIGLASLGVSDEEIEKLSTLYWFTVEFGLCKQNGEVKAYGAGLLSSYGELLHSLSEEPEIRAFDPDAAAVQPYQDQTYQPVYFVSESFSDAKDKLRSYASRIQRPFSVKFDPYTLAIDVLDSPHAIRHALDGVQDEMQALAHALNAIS

[5] = system: spontaneously hypertensive rats; conditions: cited from earlier work
tyrosine hydroxylase [6] = molecular target: tyrosine hydroxylase (Homo sapiens, UniProt P07101); conditions: cited from earlier work
[7] = Table 1A, concentration 10^−4 M
[8] = Table 1A, amino acid analogs inhibiting tyrosine hydroxylase, read-out: Concentration for 50% Inhibition
[9] = Table 1B, catecholamine analogs inhibiting tyrosine hydroxylase, read-out: Concentration for 50% Inhibition
[10] = Table 1B, concentration 10^−4 M

Sequence of tyrosine hydroxylase (Homo sapiens, UniProt P07101) (P07101 whole entry): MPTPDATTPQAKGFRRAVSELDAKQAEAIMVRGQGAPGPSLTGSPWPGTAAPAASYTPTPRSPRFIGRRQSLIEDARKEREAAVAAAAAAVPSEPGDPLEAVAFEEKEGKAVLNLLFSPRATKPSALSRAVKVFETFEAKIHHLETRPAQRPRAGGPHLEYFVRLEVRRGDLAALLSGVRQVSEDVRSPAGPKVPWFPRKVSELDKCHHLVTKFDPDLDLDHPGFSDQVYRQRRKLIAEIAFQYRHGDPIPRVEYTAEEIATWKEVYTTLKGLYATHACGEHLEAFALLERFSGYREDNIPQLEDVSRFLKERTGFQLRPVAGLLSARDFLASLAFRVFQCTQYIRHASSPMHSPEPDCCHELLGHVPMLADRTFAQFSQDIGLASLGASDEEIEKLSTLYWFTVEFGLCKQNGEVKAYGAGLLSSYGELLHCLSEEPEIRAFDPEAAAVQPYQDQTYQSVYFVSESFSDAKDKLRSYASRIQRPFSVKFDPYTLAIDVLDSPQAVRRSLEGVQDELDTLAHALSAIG

C[C@](N)(Cc1ccc(O)cc1)C(=O)O [α-methyl-L-tyrosine]
% Inhibition (tyrosine hydroxylase [1]; [7]): 86% | inhibition of tyrosine hydroxylase (tyrosine hydroxylase [1]; concentration of 10^−4M, guinea pig brain particle preparations): 86% | metabolites recovered in the urine ([2]; alpha-methyl-dopa, alpha-methyl-dopamine, alpha-methyl-norepinephrine): relatively little | oral absorption [2]: ~69% | deposition of α-synuclein [3]: blunted deposition of α-synuclein | levels of oxidized dopamine [3]: lower levels of oxidized dopamine | oxidative stress [3]: reduced oxidative stress | IC50 (tyrosine hydroxylase [4]; bovine adrenal gland preparations, read-out: concentration inhibiting tyrosine hydroxylase by 50%): 25 µM

N[C@@H](Cc1ccccc1)C(=O)O [L-phenylalanine]
% Inhibition (tyrosine hydroxylase [1]; [7]): 78% | IC50 (tyrosine hydroxylase [4]; [8]): 200 µM

CC(N)(Cc1ccc(O)c(I)c1)C(=O)O (racemic) [3-iodo-α-methyl-DL-tyrosine]
IC50 (tyrosine hydroxylase [4]; [8]): 0.3 µM

NC(Cc1ccc(F)cc1)C(=O)O (racemic) [DL-p-fluoro-phenylalanine]
% Inhibition (tyrosine hydroxylase [1]; [7]): 61%

NC(=O)Cc1ccc(O)c(O)c1 [3,4-dihydroxyphenyl-acetamide]
IC50 (tyrosine hydroxylase [4]; [9]): 1000 µM

CNC[C@H](O)c1ccc(O)c(O)c1 [L-epinephrine]
% Inhibition (tyrosine hydroxylase [1]; [10]): 35%

N[C@H](Cc1ccc(O)c(O)c1)C(=O)O [D-dopa]
% Inhibition (tyrosine hydroxylase [1]; [10]): 0%

CC(N)(Cc1ccc(O)c(F)c1)C(=O)O (racemic) [3-fluoro-α-methyl-DL-tyrosine]
IC50 (tyrosine hydroxylase [4]; [8]): 200 µM

N[C@@H](Cc1ccc(O)c(O)c1)C(=O)O [L-dopa]
% Inhibition (tyrosine hydroxylase [1]; [10]): 68%

N[C@@H](Cc1ccc(O)c(O)c1)C(=O)O [3,4-hydroxy-L-phenylalanine]
IC50 (tyrosine hydroxylase [4]; [9]): 2000 µM

CCC[C@H]1CCC(=C2C(=O)CCC2=O)O1 [Oudenone, oudenone]
effect on blood pressure [5]: reduce blood pressure | tyrosine hydroxylase inhibition (in words) (tyrosine hydroxylase [6]; directly measured): inhibit tyrosine hydroxylase

NCCc1ccc(O)c(O)c1 [dopamine]
% Inhibition (tyrosine hydroxylase [1]; [10]): 56%

C[C@@](N)(Cc1ccc(O)c(O)c1)C(=O)O [α-methyl-3,4-dhydroxy-D-phenylalanine]
IC50 (tyrosine hydroxylase [4]; [9]): > 8000 µM

N[C@H](Cc1c[nH]c2ccccc12)C(=O)O [D-tryptophan]
% Inhibition (tyrosine hydroxylase [1]; [7]): 0%

CC(N)(Cc1ccccc1)C(=O)O (racemic) [α-methyl-DL-phenylalanine]
IC50 (tyrosine hydroxylase [4]; [8]): 80 µM

C[C@H]1O[C@@H](c2ccc3c(c2O)C(=O)C2=C(C3=O)[C@@]3(O)C(=O)C[C@](C)(O)C[C@@]3(O)C=C2)C[C@@H](O)[C@@H]1O [aquayamycin]
potency as tyrosine hydroxylase inhibitor (in words) (tyrosine hydroxylase [6]; compared with 3-iodo-α-methyl-DL-tyrosine): near that reported for 3-iodo-α-methyl-DL-tyrosine

NC[C@H](O)c1ccc(O)c(O)c1 (racemic) [DL-norepinephrine]
% Inhibition (tyrosine hydroxylase [1]; Table 1B, concentration 2 × 10^−4 M): 53%

C[C@](N)(Cc1ccc(O)c(O)c1)C(=O)O [α-methyl-3,4-dhydroxy-L-phenylalanine]
IC50 (tyrosine hydroxylase [4]; [9]): 1500 µM

CC(N)(Cc1ccc(O)c(Cl)c1)C(=O)O (racemic) [3-chloro-α-methyl-DL-tyrosine]
IC50 (tyrosine hydroxylase [4]; [8]): 5 µM

N[C@H](Cc1ccc(O)c(O)c1)C(=O)O [3,4-hydroxy-D-phenylalanine]
IC50 (tyrosine hydroxylase [4]; [9]): > 4000 µM

CNC[C@H](O)c1ccc(O)c(O)c1 [D-epinephrine]
% Inhibition (tyrosine hydroxylase [1]; [10]): 47%

N[C@@H](Cc1ccc(O)c(I)c1)C(=O)O [3-iodo-L-tyrosine]
IC50 (tyrosine hydroxylase [4]; [8]): 0.5 µM

CCCC(C(N)=O)c1ccc(O)c(O)c1 (stereo not drawn) [3,4-dihydroxyphenyl-propyl-acetamide]
% Inhibition (tyrosine hydroxylase [1]; [10]): 84% | IC50 (tyrosine hydroxylase [4]; [9]): 20 µM

N[C@@H](Cc1ccc(O)c(Cl)c1)C(=O)O [3-chloro-L-tyrosine]
IC50 (tyrosine hydroxylase [4]; [8]): 10 µM

N[C@@H](Cc1cc(Br)c(O)c(Br)c1)C(=O)O [3,5-dibromo -L-tyrosine]
IC50 (tyrosine hydroxylase [4]; [8]): 500 µM

N[C@H](Cc1ccccc1)C(=O)O [D-phenylalanine]
% Inhibition (tyrosine hydroxylase [1]; [7]): 7% | IC50 (tyrosine hydroxylase [4]; [8]): > 1000 µM

C[C@@](N)(Cc1ccc(O)cc1)C(=O)O [α-methyl-D-tyrosine]
IC50 (tyrosine hydroxylase [4]; [8]): > 1000 µM

NC[C@@H](O)c1ccc(O)c(O)c1 [L-norepinephrine]
IC50 (tyrosine hydroxylase [4]; [9]): 1000 µM

CC(N)(Cc1ccc(O)c(Br)c1)C(=O)O (racemic) [3-bromo-α-methyl-DL-tyrosine]
IC50 (tyrosine hydroxylase [4]; [8]): 1.5 µM

COc1ccc(CC(C)(N)C(=O)O)cc1Cl (racemic) [3-chloro-4-methoxy-α-methyl-DL-phenylalanine]
IC50 (tyrosine hydroxylase [4]; [8]): 500 µM

CC(N)(Cc1cccc(O)c1)C(=O)O (racemic) [α-methyl-m-DL-tyrosine]
% Inhibition (tyrosine hydroxylase [1]; Table 1A, concentration 2 × 10−4 M): 92% | IC50 (tyrosine hydroxylase [4]; [8]): > 1000 µM

N[C@@H](Cc1c[nH]c2ccccc12)C(=O)O [L-tryptophan]
% Inhibition (tyrosine hydroxylase [1]; [7]): 50% | IC50 (tyrosine hydroxylase [4]; [8]): > 1000 µM

Source: patent publication US11806326B2, “Methods for dopamine modulation in human neurologic diseases” (priority 2018, dated 2023)
